In patent publication US8796324B2, “Substituted 2-acetamido-5-aryl-1,2,4-triazolones and use thereof” (Bayer Intellectual Property GmbH, priority 2009, dated 2014):
pIC50: −log10 of the molar value.

Legend:
human V1a receptor = biological target: T1, human V1a receptor (Homo sapiens, UniProt P37288); experiment: Cellular in vitro assay for determining the vasopressin receptor activity (aequorin luminescence); format: cell-based; conditions: CHO cell line transfected with the human V1a receptor; agonist [Arg8]-vasopressin; read-out: IC50 hV1a
T1 construct: expressed in transfected cells; host or cells: CHO K1 (constitutively expressing modified aequorin)
Description: (§1) B-1. Cellular In Vitro Assay for Determining the Vasopressin Receptor Activity
(§2) The identification of agonists and antagonists of the V1a and V2 vasopressin receptors from humans and rats and also the quantification of the activity of the substances described here took place using recombinant cell lines. These cells derive originally from a hamster ovary epithelial cell (Chinese Hamster Ovary, CHO K1, ATCC: American Type Culture Collection, Manassas, Va. 20108, USA). The test cell lines constitutively express a modified form of the calcium-sensitive photoprotein aequorin, which, after reconstitution with the cofactor coelenterazine, emits light when there are increases in the free calcium concentration (Rizzuto R., Simpson A. W., Brini M., Pozzan T.; Nature 358 (1992) 325-327). In addition, the cells are stably transfected with the human or rat V1a or V2 receptors. In the case of the Gs-coupling V2 receptors, the cells are stably transfected with a further gene, which codes for the promiscuous Gα16 protein (Amatruda T. T., Steele D. A., Slepak V. Z., Simon M. I., Proc. Nat. Acad. Sci. USA 88 (1991), 5587-5591), either independently or as a fusion gene. The resulting vasopressin receptor test cells react to stimulation of the recombinantly expressed vasopressin receptors by intracellular release of calcium ions, which can be quantified by the resulting aequorin luminescence using a suitable luminometer (Milligan G., Marshall F., Rees S., Trends in Pharmaco. Sci. 17 (1996) 235-237).
(§3) On the day before the assay, the cells are plated out in culture medium (DMEM, 10% FCS, 2 mM glutamine, 10 mM HEPES) in 384-well microtiter plates and kept in a cell incubator (96% humidity, 5% v/v carbon dioxide, 37° C.). On the day of the assay, the culture medium is replaced by a Tyrode solution (140 mM sodium chloride, 5 mM potassium chloride, 1 mM magnesium chloride, 2 mM calcium chloride, 20 mM glucose, 20 mM HEPES), which additionally contains the cofactor coelenterazine (50 μM), and the microtiter plate is then incubated for a further 3-4 hours. The test substances in various concentrations are placed for 10 to 20 minutes in the wells of the microtiter plate before the agonist [Arg8]-vasopressin is added, and the resulting light signal is measured immediately in the luminometer. The IC50 values are calculated using the GraphPad PRISM computer program (Version 3.02).
(§4) The table below lists representative IC50 values for the compounds of the invention on the cell line transfected with the human V1a or V2 receptor: […]

human V2 receptor = biological target: T2, human V2 receptor (Homo sapiens, UniProt P30518); experiment: as above; format: cell-based; conditions: CHO cell line transfected with the human V2 receptor (and Gα16); agonist [Arg8]-vasopressin; read-out: IC50 hV2
T2 construct: expressed in transfected cells; host or cells: CHO K1 (constitutively expressing modified aequorin; co-transfected with promiscuous G-alpha-16)
Description: as §1, §2, §3, §4

T1 sequence (P37288 whole entry): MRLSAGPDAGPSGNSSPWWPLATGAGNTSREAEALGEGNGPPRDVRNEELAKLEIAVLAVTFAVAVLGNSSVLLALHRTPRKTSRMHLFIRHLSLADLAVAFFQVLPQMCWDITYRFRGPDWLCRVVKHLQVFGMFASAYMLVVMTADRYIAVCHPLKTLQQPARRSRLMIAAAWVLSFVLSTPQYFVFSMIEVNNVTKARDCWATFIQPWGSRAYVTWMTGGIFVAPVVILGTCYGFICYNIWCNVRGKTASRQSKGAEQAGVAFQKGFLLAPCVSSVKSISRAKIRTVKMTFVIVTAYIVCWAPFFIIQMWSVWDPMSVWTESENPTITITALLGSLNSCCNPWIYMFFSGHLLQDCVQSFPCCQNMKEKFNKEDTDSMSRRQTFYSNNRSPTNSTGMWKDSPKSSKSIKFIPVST
T2 sequence (P30518 whole entry): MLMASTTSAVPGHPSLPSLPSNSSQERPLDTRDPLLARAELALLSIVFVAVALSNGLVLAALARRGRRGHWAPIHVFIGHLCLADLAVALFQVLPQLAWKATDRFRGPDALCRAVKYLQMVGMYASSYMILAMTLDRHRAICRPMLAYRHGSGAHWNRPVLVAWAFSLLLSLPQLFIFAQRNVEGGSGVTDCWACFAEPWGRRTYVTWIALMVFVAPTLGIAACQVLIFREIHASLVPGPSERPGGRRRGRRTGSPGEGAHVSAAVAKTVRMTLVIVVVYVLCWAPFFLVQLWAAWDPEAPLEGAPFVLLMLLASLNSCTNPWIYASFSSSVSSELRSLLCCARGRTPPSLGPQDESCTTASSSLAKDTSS

pIC50 (human V1a receptor) | pIC50 (human V2 receptor) | Structure (SMILES)
8.12 | 8.59 | O=C(Cn1nc(-c2ccc(Cl)cc2)n(C[C@H](O)C(F)(F)F)c1=O)NC(C[N+](=O)[O-])c1cccc(C(F)(F)F)c1 (single isomer, unassigned; diastereomer i) [Example 2]
8.85 | 8.11 | O=C(Cn1nc(-c2ccc(Cl)cc2)n(C[C@H](O)C(F)(F)F)c1=O)NC(CO)c1ccccc1C(F)(F)F (single isomer, unassigned; diastereomer i) [Example 39]
9.00 | 8.05 | NCC(NC(=O)Cn1nc(-c2ccc(Cl)cc2)n(C[C@H](O)C(F)(F)F)c1=O)c1ccccc1C(F)(F)F (single isomer, unassigned; diastereomer ii) [Example 14]
8.35 | 8.89 | CS(=O)(=O)NCC(NC(=O)Cn1nc(-c2ccc(Cl)cc2)n(C[C@H](O)C(F)(F)F)c1=O)c1cccc(C(F)(F)F)c1 (single isomer, unassigned; diastereomer ii) [Example 24]
9.05 | 8.49 | CS(=O)(=O)NCC(NC(=O)Cn1nc(-c2ccc(Cl)cc2)n(C[C@H](O)C(F)(F)F)c1=O)c1ccccc1C(F)(F)F (single isomer, unassigned; diastereomer ii) [Example 26]
8.52 | 8.82 | CCS(=O)(=O)NCC(NC(=O)Cn1nc(-c2ccc(Cl)cc2)n(C[C@H](O)C(F)(F)F)c1=O)c1cccc(Cl)c1Cl (single isomer, unassigned; diastereomer ii) [Example 34]
7.36 | 8.77 | C[C@@](CO)(NC(=O)Cn1nc(-c2ccc(Cl)cc2)n(C[C@H](O)C(F)(F)F)c1=O)c1cccc(C(F)(F)F)c1 [Example 44, 2-{3-(4-Chlorophenyl)-5-oxo-4-[(2S)-3,3,3-trifluoro-2-hydroxypropyl]-4,5-dihydro-1H-1,2,4-triazol-1-yl}-N-{(2R)-1-hydroxy-2-[3-(trifluoromethyl)phenyl]propan-2-yl}acetamide]
8.26 | 8.60 | C[C@@](COC(N)=O)(NC(=O)Cn1nc(-c2ccc(Cl)cc2)n(C[C@H](O)C(F)(F)F)c1=O)c1cccc(C(F)(F)F)c1 [Example 45, (2R)-2-[({3-(4-Chlorophenyl)-5-oxo-4-[(2S)-3,3,3-trifluoro-2-hydroxypropyl]-4,5-dihydro-1H-1,2,4-triazol-1-yl}acetyl)amino]-2-[3-(trifluoromethyl)phenyl]propyl carbamate]
8.82 | 8.31 | NC(=O)OCC(NC(=O)Cn1nc(-c2ccc(Cl)cc2)n(C[C@H](O)C(F)(F)F)c1=O)c1ccccc1Cl (stereo partly drawn) [Example 53, 2-(2-Chlorophenyl)-2-[({3-(4-chlorophenyl)-5-oxo-4-[(2S)-3,3,3-trifluoro-2-hydroxypropyl]-4,5-dihydro-1H-1,2,4-triazol-1-yl}acetyl)amino]ethyl carbamate]
8.80 | 8.01 | O=C(Cn1nc(-c2ccc(Cl)cc2)n(C[C@H](O)C(F)(F)F)c1=O)N[C@@H](CCO)c1ccccc1C(F)(F)F [Example 69, 2-{3-(4-Chlorophenyl)-5-oxo-4-[(2S)-3,3,3-trifluoro-2-hydroxypropyl]-4,5-dihydro-1H-1,2,4-triazol-1-yl}-N-{(1S)-3-hydroxy-1-[2-(trifluoromethyl)phenyl]propyl}acetamide]
8.80 | 8.00 | NC(=O)OCC[C@H](NC(=O)Cn1nc(-c2ccc(Cl)cc2)n(C[C@H](O)C(F)(F)F)c1=O)c1ccccc1C(F)(F)F [Example 70, (3S)-3-[({3-(4-Chlorophenyl)-5-oxo-4-[(2S)-3,3,3-trifluoro-2-hydroxypropyl]-4,5-dihydro-1H-1,2,4-triazol-1-yl}acetyl)amino]-3-[2-(trifluoromethyl)phenyl]propyl carbamate]
7.67 | 8.62 | Cc1cccc([C@H](CO)NC(=O)Cn2nc(-c3ccc(Cl)cc3)n(C[C@H](O)C(F)(F)F)c2=O)c1C [Example 74, 2-{3-(4-Chlorophenyl)-5-oxo-4-[(2S)-3,3,3-trifluoro-2-hydroxypropyl]-4,5-dihydro-1H-1,2,4-triazol-1-yl}-N-[(1R)-1-(2,3-dimethylphenyl)-2-hydroxyethyl]acetamide]
6.29 | 7.23 | N#Cc1cccc([C@H](CO)NC(=O)Cn2nc(-c3ccc(Cl)cc3)n(C[C@H](O)C(F)(F)F)c2=O)c1 [Example 75, 2-{3-(4-Chlorophenyl)-5-oxo-4-[(2S)-3,3,3-trifluoro-2-hydroxypropyl]-4,5-dihydro-1H-1,2,4-triazol-1-yl}-N-[(1R)-1-(3-cyanophenyl)-2-hydroxyethyl]acetamide]
7.05 | 6.64 | O=C(Cn1nc(-c2ccc(Cl)cc2)n(C[C@H](O)C(F)(F)F)c1=O)NC(CC(F)(F)F)c1ccccc1 (stereo partly drawn) [Example 90, 2-{3-(4-Chlorophenyl)-5-oxo-4-[(2S)-3,3,3-trifluoro-2-hydroxypropyl]-4,5-dihydro-1H-1,2,4-triazol-1-yl}-N-(3,3,3-trifluoro-1-phenylpropyl)acetamide]
6.60 | 7.14 | O=C(Cn1nc(-c2ccc(Cl)cc2)n(C[C@H](O)C(F)(F)F)c1=O)NC(c1ccccc1)C(O)C(F)(F)F (stereo partly drawn) [Example 94, 2-{3-(4-Chlorophenyl)-5-oxo-4-[(2S)-3,3,3-trifluoro-2-hydroxypropyl]-4,5-dihydro-1H-1,2,4-triazol-1-yl}-N-(3,3,3-trifluoro-2-hydroxy-1-phenylpropyl)acetamide]
7.24 | 7.72 | O=C(Cn1nc(-c2ccc(Cl)cc2)n(C[C@H](O)C(F)(F)F)c1=O)NC(CO)c1cccc(F)c1F (stereo partly drawn) [Example 95, 2-{3-(4-Chlorophenyl)-5-oxo-4-[(2S)-3,3,3-trifluoro-2-hydroxypropyl]-4,5-dihydro-1H-1,2,4-triazol-1-yl}-N-[1-(2,3-difluorophenyl)-2-hydroxyethyl]acetamide]
7.91 | 8.29 | O=C(Cn1nc(-c2ccc(Cl)cc2)n(C[C@H](O)C(F)(F)F)c1=O)NC(CO)c1cccc(C(F)F)c1 (stereo partly drawn) [Example 157, 2-{3-(4-Chlorophenyl)-5-oxo-4-[(2S)-3,3,3-trifluoro-2-hydroxypropyl]-4,5-dihydro-1H-1,2,4-triazol-1-yl}-N-{1-[3-(difluoromethyl)phenyl]-2-hydroxyethyl}acetamide]
8.37 | 8.74 | NS(=O)(=O)OCC(NC(=O)Cn1nc(-c2ccc(Cl)cc2)n(C[C@H](O)C(F)(F)F)c1=O)c1cccc(C(F)(F)F)c1 (stereo partly drawn) [Example 159, 2-[({3-(4-Chlorophenyl)-5-oxo-4-[(2S)-3,3,3-trifluoro-2-hydroxypropyl]-4,5-dihydro-1H-1,2,4-triazol-1-yl}acetyl)amino]-2-[3-(trifluoromethyl)phenyl]ethyl sulphamate]
6.23 | 8.11 | CN(C(=O)Cn1nc(-c2ccc(Cl)cc2)n(C[C@H](O)C(F)(F)F)c1=O)C(CO)c1cccc(C(F)(F)F)c1 (stereo partly drawn) [Example 163, 2-{3-(4-Chlorophenyl)-5-oxo-4-[(2S)-3,3,3-trifluoro-2-hydroxypropyl]-4,5-dihydro-1H-1,2,4-triazol-1-yl}-N-{2-hydroxy-1-[3-(trifluoromethyl)phenyl]ethyl}-N-methylacetamide]
7.06 | 7.12 | C=CCn1c(-c2ccc(Cl)cc2)nn(CC(=O)NC(CO)c2cccc(Cl)c2F)c1=O (stereo not drawn) [Example 168]
7.04 | 6.87 | Cc1csc(-c2nn(CC(=O)NC(CO)c3cccc(Cl)c3F)c(=O)n2CC(C)C)c1Cl (stereo not drawn) [Example 172]
